In paper PMC9851200, “Multiparameter phenotypic screening for endogenous TFEB and TFE3 translocation identifies novel chemical series modulating lysosome function” (Autophagy, 2022):

How the values were obtained:
Type in all cases: binding
[1] = molecular target: T1, kinases (KINOMEscan panel) (Homo sapiens, UniProt P42680); details: kinase TEC; NEW KINOMEscan
T1 sequence (P42680 1-631): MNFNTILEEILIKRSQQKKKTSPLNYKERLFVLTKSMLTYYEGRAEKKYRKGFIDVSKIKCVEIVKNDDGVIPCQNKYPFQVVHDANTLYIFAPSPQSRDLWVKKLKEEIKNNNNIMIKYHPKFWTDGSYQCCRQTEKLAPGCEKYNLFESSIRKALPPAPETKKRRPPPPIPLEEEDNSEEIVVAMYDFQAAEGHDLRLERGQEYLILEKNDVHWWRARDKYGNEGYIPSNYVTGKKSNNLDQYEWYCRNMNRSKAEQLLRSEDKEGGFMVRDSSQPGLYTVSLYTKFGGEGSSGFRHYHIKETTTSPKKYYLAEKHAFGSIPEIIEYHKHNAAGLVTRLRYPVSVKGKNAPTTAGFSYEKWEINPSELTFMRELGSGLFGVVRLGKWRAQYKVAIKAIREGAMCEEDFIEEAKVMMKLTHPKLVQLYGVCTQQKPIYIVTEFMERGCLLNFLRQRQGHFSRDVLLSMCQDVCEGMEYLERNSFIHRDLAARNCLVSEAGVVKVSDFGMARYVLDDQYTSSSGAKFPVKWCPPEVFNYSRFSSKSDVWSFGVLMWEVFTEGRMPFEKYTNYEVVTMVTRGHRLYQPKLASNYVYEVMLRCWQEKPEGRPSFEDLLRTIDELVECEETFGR

[2] = molecular target: kinases (KINOMEscan panel) (Homo sapiens, UniProt Q9Y463); details: kinase DYRK1B; NEW KINOMEscan
Sequence of kinases (KINOMEscan panel) (Homo sapiens, UniProt Q9Y463) (Q9Y463 whole entry): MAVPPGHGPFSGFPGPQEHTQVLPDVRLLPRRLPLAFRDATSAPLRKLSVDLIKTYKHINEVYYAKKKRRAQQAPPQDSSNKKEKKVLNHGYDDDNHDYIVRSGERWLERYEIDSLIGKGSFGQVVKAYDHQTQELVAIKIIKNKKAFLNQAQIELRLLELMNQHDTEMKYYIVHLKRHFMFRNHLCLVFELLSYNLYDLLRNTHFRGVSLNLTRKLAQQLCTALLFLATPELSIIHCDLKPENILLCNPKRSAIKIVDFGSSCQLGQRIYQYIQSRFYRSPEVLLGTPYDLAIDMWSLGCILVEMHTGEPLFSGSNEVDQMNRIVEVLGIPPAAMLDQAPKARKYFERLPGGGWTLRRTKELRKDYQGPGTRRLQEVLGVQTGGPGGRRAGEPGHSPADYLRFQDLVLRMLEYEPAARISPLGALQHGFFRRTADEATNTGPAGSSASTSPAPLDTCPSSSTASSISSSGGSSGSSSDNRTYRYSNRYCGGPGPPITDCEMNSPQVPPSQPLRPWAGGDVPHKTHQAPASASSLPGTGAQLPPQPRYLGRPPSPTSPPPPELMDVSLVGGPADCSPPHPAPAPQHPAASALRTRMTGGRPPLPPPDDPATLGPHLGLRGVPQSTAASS

[3] = molecular target: T2, kinases (KINOMEscan panel) (Homo sapiens, UniProt Q12866); details: kinase MERTK; NEW KINOMEscan
T2 sequence (Q12866 21-999): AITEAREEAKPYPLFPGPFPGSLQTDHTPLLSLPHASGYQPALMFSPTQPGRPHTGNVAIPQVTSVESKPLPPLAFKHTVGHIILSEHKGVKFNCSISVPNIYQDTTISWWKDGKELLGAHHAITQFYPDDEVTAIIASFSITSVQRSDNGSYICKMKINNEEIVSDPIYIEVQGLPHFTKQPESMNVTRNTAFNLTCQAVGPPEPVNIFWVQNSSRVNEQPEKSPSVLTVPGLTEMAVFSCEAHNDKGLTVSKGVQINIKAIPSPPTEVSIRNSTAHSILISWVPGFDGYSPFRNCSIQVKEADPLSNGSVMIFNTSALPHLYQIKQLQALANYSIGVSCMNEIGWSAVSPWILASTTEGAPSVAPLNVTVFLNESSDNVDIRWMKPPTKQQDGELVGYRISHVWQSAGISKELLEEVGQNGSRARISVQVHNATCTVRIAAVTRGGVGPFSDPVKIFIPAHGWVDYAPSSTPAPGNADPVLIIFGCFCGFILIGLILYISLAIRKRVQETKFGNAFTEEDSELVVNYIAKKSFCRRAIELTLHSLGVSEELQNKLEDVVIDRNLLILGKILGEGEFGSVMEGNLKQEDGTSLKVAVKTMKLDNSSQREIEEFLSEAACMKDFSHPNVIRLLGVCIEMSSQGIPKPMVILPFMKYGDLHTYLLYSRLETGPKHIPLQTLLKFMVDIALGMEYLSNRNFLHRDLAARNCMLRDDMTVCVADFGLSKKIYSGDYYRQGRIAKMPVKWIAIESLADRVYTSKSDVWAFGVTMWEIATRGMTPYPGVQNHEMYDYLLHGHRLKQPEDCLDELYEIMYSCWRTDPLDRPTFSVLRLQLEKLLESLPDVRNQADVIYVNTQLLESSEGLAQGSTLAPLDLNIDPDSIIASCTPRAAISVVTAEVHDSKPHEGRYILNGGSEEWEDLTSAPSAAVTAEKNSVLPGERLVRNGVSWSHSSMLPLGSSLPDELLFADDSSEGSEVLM

[4] = molecular target: T3, kinases (KINOMEscan panel) (Homo sapiens, UniProt O14976); details: kinase GAK; NEW KINOMEscan
T3 sequence (O14976 1-1311): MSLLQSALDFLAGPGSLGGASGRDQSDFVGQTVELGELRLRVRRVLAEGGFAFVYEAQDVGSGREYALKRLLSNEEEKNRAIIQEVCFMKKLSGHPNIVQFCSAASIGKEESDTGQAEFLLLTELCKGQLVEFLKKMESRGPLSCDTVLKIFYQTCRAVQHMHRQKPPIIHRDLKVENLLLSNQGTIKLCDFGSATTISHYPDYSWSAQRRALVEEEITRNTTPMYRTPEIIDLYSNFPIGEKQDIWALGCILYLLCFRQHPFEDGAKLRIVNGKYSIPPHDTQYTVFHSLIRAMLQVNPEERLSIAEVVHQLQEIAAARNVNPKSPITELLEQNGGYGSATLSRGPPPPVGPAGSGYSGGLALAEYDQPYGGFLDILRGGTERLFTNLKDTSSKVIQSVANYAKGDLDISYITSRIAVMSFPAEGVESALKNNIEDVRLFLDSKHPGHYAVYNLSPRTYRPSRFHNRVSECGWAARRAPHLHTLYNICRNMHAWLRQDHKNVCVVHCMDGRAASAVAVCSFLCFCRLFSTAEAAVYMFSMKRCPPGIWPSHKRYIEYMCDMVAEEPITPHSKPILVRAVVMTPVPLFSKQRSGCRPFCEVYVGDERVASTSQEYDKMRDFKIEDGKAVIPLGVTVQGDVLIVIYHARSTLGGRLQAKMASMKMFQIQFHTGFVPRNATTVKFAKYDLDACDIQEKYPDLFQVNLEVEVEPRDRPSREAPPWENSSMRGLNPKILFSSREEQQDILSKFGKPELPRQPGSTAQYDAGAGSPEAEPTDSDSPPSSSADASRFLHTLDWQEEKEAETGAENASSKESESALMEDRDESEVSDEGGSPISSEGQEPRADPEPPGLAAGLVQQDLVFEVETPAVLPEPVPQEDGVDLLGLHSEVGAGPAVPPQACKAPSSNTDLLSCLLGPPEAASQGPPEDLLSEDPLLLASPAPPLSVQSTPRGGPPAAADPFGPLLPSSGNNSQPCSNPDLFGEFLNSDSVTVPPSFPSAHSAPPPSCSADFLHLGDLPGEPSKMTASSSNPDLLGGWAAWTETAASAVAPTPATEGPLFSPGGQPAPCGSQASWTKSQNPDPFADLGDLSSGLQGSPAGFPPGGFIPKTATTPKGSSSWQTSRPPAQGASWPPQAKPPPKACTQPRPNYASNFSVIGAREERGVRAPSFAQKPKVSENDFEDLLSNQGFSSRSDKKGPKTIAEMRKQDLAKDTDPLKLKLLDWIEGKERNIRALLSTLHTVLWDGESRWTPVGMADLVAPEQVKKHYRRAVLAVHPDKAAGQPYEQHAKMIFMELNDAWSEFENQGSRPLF

| Structure (SMILES) | KINOMEscan TEC [1] | KINOMEscan DYRK1B [2] | KINOMEscan MERTK [3] | KINOMEscan GAK [4] |
| --- | --- | --- | --- | --- |
| Cc1cccc(-c2nc(Nc3ccc4nn(C)cc4c3)c3ccccc3n2)n1 [NK167] | 0 | 12 | 0 | 0 |
| Cc1cccc(-c2nc(N(C)c3ccc4ncsc4c3)c3ccccc3n2)n1 [NK-161] | 0 | 16 | 11 | 0 |
